This is an account of results in US4152425A, “Glucose containing infusion solution” (THERA Gesellschaft fur Patentverwertung mbH, priority 1976, dated 1979).

Where no end group is shown, it is not given here.

Assay [1] is described as follows: Decomposition of the kinins within the organism. Particulars: in vivo. The source says: This is unexpected and surprising because the phenothiazines were known heretofore only as substances having an anti-depressive effect. This fact could cause one to conclude, however, that they could affect certain oligopeptides which influence the metabolism and would indirectly, i.e., by inhibiting the decomposition of the kinins, improve the glucose assimilation of the tissue.

The next assay relates to resting forearm. Briefly: Resting forearm test, 10 milliliter injection into the artery of the arm. It is filed as in vivo, human. Particulars: fraction of 1μ gram in 10 milliliter of 10% glucose solution injected into the artery of the arm, versus kinin-free solution. The source says:
This illustrates the improved glucose absorption into the tissue of the arm and the muscular system of the hand when the solution of the present invention is employed. Since the effect of this decrease in the glucose level of the blood by the kinin admixture occurs so quickly, it may be assumed that this is caused not by an intensification of the decomposition of the glucose or the metabolism within the cell but by a more rapid penetration of the muscular cell.

A further assay concerns spermatozoa. Particulars: cited from earlier work.

For `CN(C)CCCN1c2ccccc2Sc2ccc(Cl)cc21` [2-chloro-10-(3-dimethylamino-propyl)-phenothiazine], the “decomposition of the kinins within the organism” value in assay [1] is recorded as “inhibited significantly”. On to “RPPGFSPFR [Brady kinin, (NH2) arginine - proline - proline - glycine - phenylalanine - serine - proline - phenylalanine - arginine (COOH)]”, for which, in the assay with resting forearm, the “glucose content in the blood flowing through the vein of the arm” value is listed as “pronounced decrease”. The “mobility of the spermatozoa” value with spermatozoa was “further the mobility of the spermatozoa”. On to “kallidin: decapeptide kinin differing from Brady kinin only by a lysine residue at the amino end (KRPPGFSPFR; Lysyl-bradykinin; UniProt P01042 380-389, looked up)”, for which the “mobility of the spermatozoa” value with spermatozoa is recorded as “further the mobility of the spermatozoa”.
